In general, Tmax refers to the time from dosing to the highest level.

The nature of series [1]: Pharmacokinetics by oral administration in beagle dogs. In kind it is in vivo. To be noted: male, dog, plasma, 24.5 mg/kg, 0.5% methylcellulose. Here is the method:
680.397 mg of assay compound powder was accurately weighed, and 50 mL of 0.500 methylcellulose (400 viscosity) aqueous solution was added. The mixture was stirred for 10 minutes, and sonicated for 10 minutes. 50 mL of 0.5% o methylcellulose (400 viscosity) aqueous solution was added, and homogenized for 10 minutes using a homogenizer. 11 mL of 0.5% o methylcellulose (400 viscosity) aqueous solution was added. The mixture was sonicated for 5 minutes and stirred for 10 minutes. 358 μL of 0.5% o methylcellulose (400 viscosity) aqueous solution was added and stirred for 2 minutes. Male beagle dogs aged over six months were selected, and administered candidate compound solution orally. Whole blood was collected for a certain period of time, and prepared to obtain plasma. Drug concentration was analyzed by LC-MS/MS method, and pharmacokinetic parameters were calculated by Phoenix WinNonlin software (Pharsight, USA). The results of the assay are shown in Table 14: […]

A short description of series [2]: Solid stability assay of crystal form A (XRPD). It is filed as physicochemical. From the text: The sample was spread into a thin layer. For the samples placed under conditions of high temperature and high humidity, the vial mouth was sealed with aluminum foil, and some small holes were punched in the aluminum foil to ensure that the samples were fully in contact with the ambient air. For the samples placed under condition of strong light, the vial mouth was sealed with aluminum foil, and some small holes were punched in the aluminum foil. Samples placed under different conditions were sampled and tested (XRPD) on day 5 and day 10, respectively. The assay results were compared with the initial assay results on day 0.
Each medicinal low-density polyethylene bag was tied tightly with a tie, and then was placed into a single-layer aluminum foil bag. The single-layer aluminum foil bag was then heat-sealed. Finally, the samples were stored in plastic buckets and stored in a chamber with constant temperature and humidity. The packaging used in the stability assay simulated the material storage packaging. The material was divided into 1.5 g/package as stability samples under red light. Each sample was packaged in the same way and labeled with a stability sample label. The samples placed under different conditions were sampled and tested (XRPD) in the 3rd and 6th months. The assay results were compared with the initial assay results on day 0.

Series [3] in a line: Pharmacokinetics of crystal form A by oral administration in SD rats. In kind it is in vivo. To be noted: male, rat, plasma, 92.3 mg/kg, suspension in 0.5% methylcellulose. Here is the method: Male SD rats aged 7 to 10 weeks were selected, and administered candidate compound solution orally. Whole blood was collected for a certain period of time, and prepared to obtain plasma. Drug concentration was analyzed by LC-MS/MS method, and pharmacokinetic parameters were calculated by Phoenix WinNonlin software (Pharsight, USA).

Where [4] appears, read: read-out: Area under the plasma concentration-time curve, AUC0-last.
The mark [5] stands for this setting: read-out: Peak concentration, Cmax.

Consider `C=C(F)C(=O)N1CCN(c2nc(OC[C@@]34CCCN3C[C@H](F)C4)nc3c2CO[C@H](c2c(F)c(N)cc(C)c2C(F)(F)F)C3)C[C@@H]1CC#N`, for which the AUC(0-t) in series [1] (setting [4]) came to 16.7 µM·h; in series [3] (setting [4]) it was 11.5 µM·h. Further, the Cmax in series [1] (setting [5]) was 2440 nM; in series [3] (setting [5]) it was 1400 nM. The time of peak concentration (Tmax) in series [1] (read-out: Time-to-peak, Tmax) is 2.5 h; in series [3] (read-out: Time-to-peak, Tmax), 5.33 h. Further, the Crystal form entry is on record as “Crystal form A” in series [2] (25 ± 2° C./60 ± 5% relative humidity, 3 months); “Crystal form A” in series [2] (25 ± 2° C./60 ± 5% relative humidity, 6 months); “Crystal form A” in series [2] (40 ± 2° C./75 ± 5% relative humidity, 3 months); “Crystal form A” in series [2] (40 ± 2° C./75 ± 5% relative humidity, 6 months); “Crystal form A” in series [2] (High humidity (25° C./relative humidity 92.5%, unsealed), 5 days); “Crystal form A” in series [2] (High humidity (25° C./relative humidity 92.5%, unsealed), 10 days). In addition, the Crystal form result is given as “Crystal form A” in series [2] (High temperature (60° C., unsealed), 5 days); “Crystal form A” in series [2] (High temperature (60° C., unsealed), 10 days); “Crystal form A” in series [2] (Light control, 5 days); “Crystal form A” in series [2] (Light control, 10 days); “Crystal form A” in series [2] (initial, 0 day (XRPD)). Also, the solid stability entry in series [2] (high temperature, high humidity, strong light, long-term and accelerated experiments) is “good stability”.

These data come from patent US20250129102A1, “CRYSTAL FORM OF PYRIMIDINE HETEROCYCLIC COMPOUND AND PREPARATION METHOD THEREFOR” (D3 Bio (Wuxi) Co., Ltd., priority 2021, published 2025).
